Assay [1] has as its target Phosphatidylinositol 4,5-bisphosphate 3-kinase catalytic subunit beta isoform (Homo sapiens, UniProt P42338). The assay can be described thus: Inhibition of human PI3Kbeta.
The test system of another assay is HeLa. As to the kind of experiment: Anticancer activity against human HeLa cells by MTT assay. The format is functional, cell-based.
The test system of the next assay is MCF7. The assay can be described thus: Anticancer activity against human MCF7 cells by MTT assay. The format is functional, cell-based.
Assay [2] deals with A549. The assay can be described thus: Anticancer activity against human A549 cells by MTT assay. The format is functional, cell-based.
Assay [3] concerns the target Phosphatidylinositol 4,5-bisphosphate 3-kinase catalytic subunit alpha isoform (Homo sapiens, UniProt P42336). As to the kind of experiment: Inhibition of human PI3Kalpha.
The next assay relates to HepG2. As to the kind of experiment: Anticancer activity against human HepG2 cells by MTT assay. The format is functional, cell-based.
Assay [4] addresses Phosphatidylinositol 4,5-bisphosphate 3-kinase catalytic subunit gamma isoform (Homo sapiens, UniProt P48736). As to the kind of experiment: Inhibition of human PI3Kgamma.
Assay [5] has as its system A549. As to the kind of experiment: Induction of apoptosis in human A549 cells assessed as apoptotic cells at 1 uM after 48 hrs using annexin V and propidium iodide staining by flow cytometry (reference value: 5.37 %). The format is functional.
The subject of assay [6] is A549. As to the kind of experiment: Induction of apoptosis in human A549 cells assessed as apoptotic cells at 4 uM after 48 hrs using annexin V and propidium iodide staining by flow cytometry (reference value: 5.37 %). The format is functional. On the technique in general: Flow cytometry measures light scatter and fluorescence of single cells or particles in a stream.

Assay [7] has as its target Epidermal growth factor receptor (Homo sapiens, UniProt P00533). The assay can be described thus: Inhibition of EGFR (unknown origin).
For assay [8], the target named is Tyrosine-protein kinase JAK2 (Homo sapiens, UniProt O60674). The assay can be described thus: Inhibition of JAK2 (unknown origin).
Assay [9] relates to A549. As to the kind of experiment: Induction of apoptosis in human A549 cells assessed as late apoptotic cells at 4 uM after 48 hrs using annexin V and propidium iodide staining by flow cytometry (reference value: 9.79 %). The format is functional.
The test system of assay [10] is A549. The assay can be described thus: Induction of apoptosis in human A549 cells assessed as viable cells at 4 uM after 48 hrs using annexin V and propidium iodide staining by flow cytometry (reference value: 78.8 %). The format is functional. The conditions noted are these: A549, 48 h, read-out: Activity.
For assay [11], the system named is A549. The assay can be described thus: Induction of apoptosis in human A549 cells assessed as viable cells at 16 uM after 48 hrs using annexin V and propidium iodide staining by flow cytometry (reference value: 78.8 %). The format is functional. Particulars: A549, 48 h, read-out: Activity.
The test system of assay [12] is A549. As to the kind of experiment: Induction of apoptosis in human A549 cells assessed as viable cells at 1 uM after 48 hrs using annexin V and propidium iodide staining by flow cytometry (reference value: 78.8 %). Particulars: A549, 48 h, read-out: Activity. The format is functional.
Assay [13] concerns the target Cyclin-dependent kinase 2 (Homo sapiens, UniProt P24941). As to the kind of experiment: Inhibition of CDK2 (unknown origin).
The subject of assay [14] is A549. The assay can be described thus: Induction of apoptosis in human A549 cells assessed as late necrotic cells at 4 uM after 48 hrs using annexin V and propidium iodide staining by flow cytometry (reference value: 6.00 %). The format is functional.
Assay [15] has as its system A549. The assay can be described thus: Induction of apoptosis in human A549 cells assessed as late necrotic cells at 1 uM after 48 hrs using annexin V and propidium iodide staining by flow cytometry (reference value: 6.00 %). The format is functional.
The subject of assay [16] is A549. The assay can be described thus: Induction of apoptosis in human A549 cells assessed as apoptotic cells at 16 uM after 48 hrs using annexin V and propidium iodide staining by flow cytometry (reference value: 5.37 %). The format is functional.
In assay [17] the test system is A549. As to the kind of experiment: Induction of apoptosis in human A549 cells assessed as late apoptotic cells at 1 uM after 48 hrs using annexin V and propidium iodide staining by flow cytometry (reference value: 9.79 %). The format is functional.
Assay [18] relates to A549. The assay can be described thus: Induction of apoptosis in human A549 cells assessed as late necrotic cells at 16 uM after 48 hrs using annexin V and propidium iodide staining by flow cytometry (reference value: 6.00 %). The format is functional.
Assay [19] has as its system A549. The assay can be described thus: Induction of apoptosis in human A549 cells assessed as late apoptotic cells at 16 uM after 48 hrs using annexin V and propidium iodide staining by flow cytometry (reference value: 9.79 %). The format is functional.

Phosphatidylinositol 4,5-bisphosphate 3-kinase catalytic subunit gamma isoform, sequence (P48736 whole entry, canonical isoform): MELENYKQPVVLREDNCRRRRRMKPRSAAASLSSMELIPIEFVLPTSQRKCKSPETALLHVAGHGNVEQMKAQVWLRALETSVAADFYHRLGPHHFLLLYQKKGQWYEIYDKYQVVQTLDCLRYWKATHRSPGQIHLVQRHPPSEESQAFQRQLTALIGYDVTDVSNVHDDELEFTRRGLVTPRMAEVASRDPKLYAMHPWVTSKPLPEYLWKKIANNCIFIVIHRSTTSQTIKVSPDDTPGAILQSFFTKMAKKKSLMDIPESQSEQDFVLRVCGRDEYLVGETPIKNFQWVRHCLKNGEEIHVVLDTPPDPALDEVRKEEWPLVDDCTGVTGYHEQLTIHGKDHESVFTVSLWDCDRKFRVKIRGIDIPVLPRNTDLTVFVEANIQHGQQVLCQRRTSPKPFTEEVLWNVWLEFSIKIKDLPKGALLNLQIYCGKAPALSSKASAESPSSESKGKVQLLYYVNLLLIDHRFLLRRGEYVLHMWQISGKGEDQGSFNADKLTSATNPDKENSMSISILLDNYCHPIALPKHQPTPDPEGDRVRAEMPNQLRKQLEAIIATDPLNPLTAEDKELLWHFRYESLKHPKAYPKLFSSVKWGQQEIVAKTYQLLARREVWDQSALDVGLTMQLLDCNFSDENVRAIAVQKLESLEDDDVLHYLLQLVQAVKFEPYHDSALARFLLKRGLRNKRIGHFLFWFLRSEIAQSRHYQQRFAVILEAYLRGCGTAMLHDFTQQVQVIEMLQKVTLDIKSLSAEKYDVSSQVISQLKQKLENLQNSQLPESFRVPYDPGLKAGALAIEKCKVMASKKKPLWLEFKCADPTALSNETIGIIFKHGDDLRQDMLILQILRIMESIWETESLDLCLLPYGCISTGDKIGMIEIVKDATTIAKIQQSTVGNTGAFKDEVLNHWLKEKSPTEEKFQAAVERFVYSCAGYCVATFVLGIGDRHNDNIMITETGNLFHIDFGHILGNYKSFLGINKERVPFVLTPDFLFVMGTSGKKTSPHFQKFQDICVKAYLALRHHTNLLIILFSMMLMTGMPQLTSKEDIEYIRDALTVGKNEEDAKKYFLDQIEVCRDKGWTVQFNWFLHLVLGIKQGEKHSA
Phosphatidylinositol 4,5-bisphosphate 3-kinase catalytic subunit beta isoform, sequence (P42338 whole entry, canonical isoform): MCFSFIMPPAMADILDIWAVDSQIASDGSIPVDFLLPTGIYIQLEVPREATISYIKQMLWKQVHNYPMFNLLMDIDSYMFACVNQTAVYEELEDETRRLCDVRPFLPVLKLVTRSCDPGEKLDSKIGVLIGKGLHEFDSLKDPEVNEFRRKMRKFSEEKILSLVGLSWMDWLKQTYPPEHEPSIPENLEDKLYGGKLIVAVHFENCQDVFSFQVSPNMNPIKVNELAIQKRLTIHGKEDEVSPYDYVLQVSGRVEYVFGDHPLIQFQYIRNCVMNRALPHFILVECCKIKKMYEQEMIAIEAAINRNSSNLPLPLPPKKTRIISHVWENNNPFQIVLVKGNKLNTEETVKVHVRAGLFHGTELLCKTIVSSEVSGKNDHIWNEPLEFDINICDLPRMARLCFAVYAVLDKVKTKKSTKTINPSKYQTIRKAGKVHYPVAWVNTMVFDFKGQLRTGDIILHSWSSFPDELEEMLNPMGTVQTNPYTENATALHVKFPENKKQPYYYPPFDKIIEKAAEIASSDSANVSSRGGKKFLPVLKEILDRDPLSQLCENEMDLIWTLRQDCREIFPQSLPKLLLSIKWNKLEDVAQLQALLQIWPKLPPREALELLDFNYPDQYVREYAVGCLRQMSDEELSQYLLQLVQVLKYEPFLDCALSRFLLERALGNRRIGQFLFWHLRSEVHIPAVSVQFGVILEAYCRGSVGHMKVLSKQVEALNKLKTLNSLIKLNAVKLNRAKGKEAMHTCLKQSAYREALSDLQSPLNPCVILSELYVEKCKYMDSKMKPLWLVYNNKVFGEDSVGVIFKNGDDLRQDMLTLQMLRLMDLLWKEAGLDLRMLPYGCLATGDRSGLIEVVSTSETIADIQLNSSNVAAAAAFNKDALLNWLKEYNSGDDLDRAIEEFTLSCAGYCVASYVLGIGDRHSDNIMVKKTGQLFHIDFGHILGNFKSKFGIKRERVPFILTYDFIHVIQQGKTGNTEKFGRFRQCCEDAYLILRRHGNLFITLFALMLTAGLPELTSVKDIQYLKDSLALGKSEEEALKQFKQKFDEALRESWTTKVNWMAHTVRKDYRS
Phosphatidylinositol 4,5-bisphosphate 3-kinase catalytic subunit alpha isoform, sequence (P42336 whole entry, canonical isoform): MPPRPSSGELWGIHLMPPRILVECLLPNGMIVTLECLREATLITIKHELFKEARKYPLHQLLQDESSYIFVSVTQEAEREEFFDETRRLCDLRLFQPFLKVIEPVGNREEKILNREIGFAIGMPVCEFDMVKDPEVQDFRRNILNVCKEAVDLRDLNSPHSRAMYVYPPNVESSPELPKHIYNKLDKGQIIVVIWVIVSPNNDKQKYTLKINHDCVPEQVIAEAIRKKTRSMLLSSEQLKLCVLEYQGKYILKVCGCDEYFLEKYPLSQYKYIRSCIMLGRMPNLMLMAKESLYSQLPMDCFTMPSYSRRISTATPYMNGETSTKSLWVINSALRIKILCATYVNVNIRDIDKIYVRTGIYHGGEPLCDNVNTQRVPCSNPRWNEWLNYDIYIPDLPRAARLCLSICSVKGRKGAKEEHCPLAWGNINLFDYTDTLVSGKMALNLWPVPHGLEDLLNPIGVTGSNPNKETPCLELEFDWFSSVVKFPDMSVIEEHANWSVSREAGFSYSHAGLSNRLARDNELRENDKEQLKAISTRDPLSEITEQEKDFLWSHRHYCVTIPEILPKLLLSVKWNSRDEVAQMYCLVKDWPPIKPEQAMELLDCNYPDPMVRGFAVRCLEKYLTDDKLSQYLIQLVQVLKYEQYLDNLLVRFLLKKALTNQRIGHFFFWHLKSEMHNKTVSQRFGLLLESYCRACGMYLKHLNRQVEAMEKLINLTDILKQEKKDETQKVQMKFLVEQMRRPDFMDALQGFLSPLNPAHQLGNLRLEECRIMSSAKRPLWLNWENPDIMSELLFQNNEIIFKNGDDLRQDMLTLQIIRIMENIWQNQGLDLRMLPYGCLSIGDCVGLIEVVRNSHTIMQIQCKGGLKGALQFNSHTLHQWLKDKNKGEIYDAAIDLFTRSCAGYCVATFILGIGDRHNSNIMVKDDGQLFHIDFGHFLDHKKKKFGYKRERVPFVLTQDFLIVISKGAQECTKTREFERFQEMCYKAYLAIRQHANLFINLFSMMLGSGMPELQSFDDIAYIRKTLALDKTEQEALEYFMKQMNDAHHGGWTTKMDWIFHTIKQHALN
Tyrosine-protein kinase JAK2, sequence (O60674 whole entry): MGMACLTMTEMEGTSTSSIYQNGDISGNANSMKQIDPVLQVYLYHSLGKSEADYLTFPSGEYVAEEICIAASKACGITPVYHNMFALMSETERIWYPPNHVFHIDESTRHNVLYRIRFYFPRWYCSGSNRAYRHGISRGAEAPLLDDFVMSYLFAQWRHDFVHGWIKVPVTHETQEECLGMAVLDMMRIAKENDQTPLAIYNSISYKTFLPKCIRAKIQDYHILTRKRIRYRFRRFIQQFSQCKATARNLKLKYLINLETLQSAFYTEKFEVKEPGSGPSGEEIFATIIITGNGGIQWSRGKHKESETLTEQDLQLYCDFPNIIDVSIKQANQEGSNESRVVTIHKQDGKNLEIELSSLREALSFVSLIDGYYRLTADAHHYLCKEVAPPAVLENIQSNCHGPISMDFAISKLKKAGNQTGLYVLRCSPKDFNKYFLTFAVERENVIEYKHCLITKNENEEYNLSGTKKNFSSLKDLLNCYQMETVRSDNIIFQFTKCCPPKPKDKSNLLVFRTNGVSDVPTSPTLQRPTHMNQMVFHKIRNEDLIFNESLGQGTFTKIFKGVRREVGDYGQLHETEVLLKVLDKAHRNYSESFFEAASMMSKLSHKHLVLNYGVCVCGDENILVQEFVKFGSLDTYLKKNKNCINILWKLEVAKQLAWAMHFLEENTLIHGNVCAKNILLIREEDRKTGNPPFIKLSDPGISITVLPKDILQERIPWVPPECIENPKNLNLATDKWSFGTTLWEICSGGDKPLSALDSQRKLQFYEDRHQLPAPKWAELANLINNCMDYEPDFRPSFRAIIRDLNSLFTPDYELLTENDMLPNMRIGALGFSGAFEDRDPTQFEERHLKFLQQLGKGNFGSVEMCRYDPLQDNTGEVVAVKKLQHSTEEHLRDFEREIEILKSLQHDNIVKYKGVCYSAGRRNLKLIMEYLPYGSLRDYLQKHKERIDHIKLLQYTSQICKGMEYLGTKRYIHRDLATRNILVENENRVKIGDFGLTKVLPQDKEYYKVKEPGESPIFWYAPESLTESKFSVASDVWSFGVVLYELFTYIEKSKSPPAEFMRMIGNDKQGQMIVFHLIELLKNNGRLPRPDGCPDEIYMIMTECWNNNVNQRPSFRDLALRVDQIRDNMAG

For the molecule `COc1ccc(-c2ccnc(Nc3cccc(OC)c3)n2)cc1`, the IC50 was 729 nM in assay [1]; 550 nM in the assay with HeLa; 3.45 µM in the assay with MCF7; 6.53 µM in the assay with A549 [2]; 615 nM in assay [3]; 13.9 µM in the assay with HepG2. Besides, the IC50 in [4] (read-out: IC50) and in assay [4] (read-out: pIC50 (converted)) was 195 nM each time.

In the case of `COc1cc(Nc2nccc(-c3ccc(Cl)cc3)n2)cc(OC)c1OC`, the Activity in the assay with A549 [5] came out at 8.47%; with A549 [6], 6.53%; in the assay with A549 [9] it was 32.8%; with A549 [14], 4.62%; in the assay with A549 [15], 3.66%; in the assay on A549 [16], 13.5%. Moreover, the Activity in the assay on A549 [17] is reported as 25%; in the assay on A549 [18], 2.19%; with A549 [19], 39.4%. Also, the IC50 was found to be 2150 nM in assay [7]; 373 nM in assay [1]; 290 nM with HeLa; 21.5 µM in assay [8]; 3.15 µM with MCF7; 0.36 µM with A549 [2]. For the same molecule, the IC50 was 18.8 µM in assay [13], 341 nM in assay [3], 0.09 µM in the assay with HepG2 and no more than 65 nM in assay [4] (read-out: IC50). Further, in the assay on A549 [10], the viability at 4 µM was found to be 56.1%. In addition, the viability at 16 µM in the assay on A549 [11] is 44.9%. In addition, in the assay with A549 [12], the viability at 1 µM was determined as 62.9%.
